Source: ChEMBL document CHEMBL1201862, “PubChem BioAssay data set” (2004)
Activity calls are given as the source filed them.

target: T1, RNA-binding protein pos-1 (Caenorhabditis elegans, UniProt G5EF15); test: disruptors of C. elegans POS-1 RNA interaction – biochemical, fluorescence polarization, dose response (AID 1964); details: not given;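 also: purified POS-1 fused to maltose binding protein made in E. coli; potency of compounds blocking POS-1 binding to fluorescent RNA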
T1 sequence (G5EF15 whole entry): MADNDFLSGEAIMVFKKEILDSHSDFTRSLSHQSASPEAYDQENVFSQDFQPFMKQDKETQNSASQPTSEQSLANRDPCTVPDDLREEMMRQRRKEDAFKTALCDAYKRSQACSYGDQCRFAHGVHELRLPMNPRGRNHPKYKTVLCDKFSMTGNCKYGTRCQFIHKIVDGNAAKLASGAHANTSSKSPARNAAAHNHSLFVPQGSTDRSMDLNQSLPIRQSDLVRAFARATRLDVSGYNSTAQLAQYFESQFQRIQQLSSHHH

| Structure (SMILES) | EC50 |
| --- | --- |
| Cc1c(N/C=C2\C(=O)NC(=O)N(Cc3ccccc3)C2=O)c(=O)n(-c2ccccc2)n1C | > 300 µM (not active) |
| NC(=O)c1c(NC(=O)c2c(F)cccc2F)sc2c1CCN(Cc1ccccc1)C2 | 57.1 µM (active) |
| CC(=O)c1c(C(C)=O)c(C)n(-c2ccc(C(=O)O)cc2)c1C | > 300 µM (not active) |
| Cc1cc(C(F)(F)F)c2c(N)c(C(=O)Nc3cc(C)on3)sc2n1 | > 300 µM (inconclusive) |
| COc1ccc(OC)c(/N=C/c2c(O)oc3ccccc3c2=O)c1 | > 300 µM (inconclusive) |
| COc1ccc(C2CC(=O)C(/C=N/CCCO)=C(O)C2)cc1 (centres undefined) | 34.8 µM (active) |

target: Paired box protein Pax-8 (Homo sapiens, UniProt Q06710); test: PAX8 transcriptional activity inhibition in RMG-I – RMG-I cells, luciferase, cherry-pick, dose response (AID 687027); type: functional, cell-based; details: not given;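 also: luciferase reporter driven by Pax8 target thyroperoxidase promoter measured by SteadyGlo luminescence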
Sequence (Q06710 whole entry): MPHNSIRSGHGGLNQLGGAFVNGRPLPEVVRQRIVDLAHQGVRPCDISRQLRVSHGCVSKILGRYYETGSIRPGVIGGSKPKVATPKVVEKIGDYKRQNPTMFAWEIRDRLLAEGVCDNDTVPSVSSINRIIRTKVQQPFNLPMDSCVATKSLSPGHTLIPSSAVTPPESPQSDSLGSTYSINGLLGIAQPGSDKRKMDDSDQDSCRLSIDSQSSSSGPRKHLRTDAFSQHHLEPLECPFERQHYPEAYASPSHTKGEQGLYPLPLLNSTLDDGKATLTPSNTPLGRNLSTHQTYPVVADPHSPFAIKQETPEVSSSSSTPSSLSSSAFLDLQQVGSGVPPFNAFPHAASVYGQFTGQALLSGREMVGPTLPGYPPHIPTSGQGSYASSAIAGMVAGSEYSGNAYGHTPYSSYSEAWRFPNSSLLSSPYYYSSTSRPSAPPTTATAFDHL

| Structure (SMILES) | AC50 |
| --- | --- |
| C#CCN(C[C@H]1[C@H](OC(=O)Nc2c(C)noc2C)[C@H](OC(=O)Nc2c(C)noc2C)C[C@@H](C(=O)OC)[C@H]1C(=O)OC)S(=O)(=O)c1ccc(C)cc1 | 31.9 µM (active) |
| C[C@H]1CCCCO[C@@H](CN(C)C)[C@@H](C)CN([C@@H](C)CO)C(=O)c2cc(NC(=O)Nc3ccc(C(F)(F)F)cc3)ccc2O1 | 22.1 µM (active) |
| C[C@@H]1CCCCO[C@H](CN(C)C(=O)Nc2ccc(F)cc2)[C@@H](C)CN([C@@H](C)CO)C(=O)c2cc(NC(=O)Nc3ccc(C(F)(F)F)cc3)ccc2O1 | 2.58 µM (active) |
| C[C@@H]1CCCCO[C@H](CN(C)Cc2ccc(C(F)(F)F)cc2)[C@H](C)CN([C@H](C)CO)C(=O)c2cc(NS(=O)(=O)c3ccc(F)cc3)ccc2O1 | 6.71 µM (active) |

target: FAD-linked sulfhydryl oxidase ALR (Homo sapiens, UniProt P55789); test: ALR-catalysed DTT oxidation blockers – biochemical, H2O2 detection, luminescence, cherry-pick, dose response (AID 493248); details: not given
Sequence (P55789 whole entry): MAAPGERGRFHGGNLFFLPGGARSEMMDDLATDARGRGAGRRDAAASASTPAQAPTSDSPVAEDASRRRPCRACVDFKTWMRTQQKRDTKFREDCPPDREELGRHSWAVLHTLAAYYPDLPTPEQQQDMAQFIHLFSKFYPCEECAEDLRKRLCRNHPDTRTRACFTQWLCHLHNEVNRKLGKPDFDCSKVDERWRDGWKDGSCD

| Structure (SMILES) | AC50 |
| --- | --- |
| COc1cc(-c2csc(C)n2)ccc1O | 13.9 µM (active) |

test system: not listed separately; test: Luminescence Cell-Based Dose Confirmation HTS to Identify Inhibitors of Platelet Dense Granule Release. [Related pubchem assays: 1663 (Primary HTS), 1678 (Summary of Project)]; type: functional; details: not given

| Structure (SMILES) | EC50 |
| --- | --- |
| CN(C)c1ccc(N/C=C/C(=O)c2ccc(F)cc2)cc1 | 1.5 µM (active) |
| CN(C)c1ccc(N/C=C/C(=O)c2ccccc2)cc1 | 0.93 µM (active) |

target: Luciferin 4-monooxygenase (Photinus pyralis, UniProt P08659); test: inhibition of purified Photinus pyralis luciferase – biochemical, luminescence, dose response (AID 1891); details: not given
Sequence (P08659 whole entry): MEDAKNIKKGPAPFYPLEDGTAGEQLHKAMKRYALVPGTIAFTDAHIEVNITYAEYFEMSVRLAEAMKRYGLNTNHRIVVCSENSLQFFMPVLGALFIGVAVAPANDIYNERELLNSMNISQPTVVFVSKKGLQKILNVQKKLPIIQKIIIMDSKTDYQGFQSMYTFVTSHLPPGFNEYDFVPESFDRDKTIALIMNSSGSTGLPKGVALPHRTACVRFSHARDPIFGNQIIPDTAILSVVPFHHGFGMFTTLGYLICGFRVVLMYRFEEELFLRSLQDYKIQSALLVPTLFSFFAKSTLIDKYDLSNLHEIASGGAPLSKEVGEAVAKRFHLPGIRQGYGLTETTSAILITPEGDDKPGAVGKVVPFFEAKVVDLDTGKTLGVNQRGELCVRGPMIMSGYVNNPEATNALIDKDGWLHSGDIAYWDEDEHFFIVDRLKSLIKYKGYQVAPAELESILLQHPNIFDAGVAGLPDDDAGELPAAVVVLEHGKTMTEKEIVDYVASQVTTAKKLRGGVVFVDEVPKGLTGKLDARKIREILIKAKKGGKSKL

| Structure (SMILES) | EC50 |
| --- | --- |
| CN(C)c1ccc(N/C=C/C(=O)c2ccc(F)cc2)cc1 | 0.816 µM (active) |
| CN(C)c1ccc(N/C=C/C(=O)c2ccccc2)cc1 | 0.654 µM (active) |

target: T2, Zinc finger protein mex-5 (Caenorhabditis elegans, UniProt Q9XUB2); test: potency of MEX-5 RNA-binding blockers – biochemical, C. elegans, fluorescence polarization, dose response (AID 1960); details: not given
T2 sequence (Q9XUB2 whole entry): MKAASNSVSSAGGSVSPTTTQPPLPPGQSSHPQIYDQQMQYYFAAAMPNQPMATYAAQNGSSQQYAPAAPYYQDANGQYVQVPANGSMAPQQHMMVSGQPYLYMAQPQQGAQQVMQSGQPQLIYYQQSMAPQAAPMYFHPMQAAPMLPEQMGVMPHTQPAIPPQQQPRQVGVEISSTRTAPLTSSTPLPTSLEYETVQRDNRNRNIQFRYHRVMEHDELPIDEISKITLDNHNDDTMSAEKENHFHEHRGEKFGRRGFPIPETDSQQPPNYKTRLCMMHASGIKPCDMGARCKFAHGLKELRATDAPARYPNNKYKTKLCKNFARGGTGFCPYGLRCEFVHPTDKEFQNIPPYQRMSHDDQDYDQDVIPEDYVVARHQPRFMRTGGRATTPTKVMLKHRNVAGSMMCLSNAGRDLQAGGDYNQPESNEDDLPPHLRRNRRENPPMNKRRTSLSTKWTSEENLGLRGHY

| Structure (SMILES) | EC50 |
| --- | --- |
| Cc1c(N/C=C2\C(=O)NC(=O)N(Cc3ccccc3)C2=O)c(=O)n(-c2ccccc2)n1C | > 300 µM (not active) |
| NC(=O)c1c(NC(=O)c2c(F)cccc2F)sc2c1CCN(Cc1ccccc1)C2 | > 300 µM (not active) |
| CC(=O)c1c(C(C)=O)c(C)n(-c2ccc(C(=O)O)cc2)c1C | > 300 µM (not active) |
| Cc1cc(C(F)(F)F)c2c(N)c(C(=O)Nc3cc(C)on3)sc2n1 | 39.2 µM (active) |
| COc1ccc(OC)c(/N=C/c2c(O)oc3ccccc3c2=O)c1 | > 300 µM (inconclusive) |
| COc1ccc(C2CC(=O)C(/C=N/CCCO)=C(O)C2)cc1 (centres undefined) | 37.9 µM (active) |

target: T3, Carboxy-terminal domain RNA polymerase II polypeptide A small phosphatase 1 (Homo sapiens, UniProt Q9GZU7); test: CTDSP1 inhibitors, concentration-response, biochemical, absorbance readout, ultra-high-throughput screen actives (AID 540297); type: functional; details: not given
T3 sequence (Q9GZU7 whole entry): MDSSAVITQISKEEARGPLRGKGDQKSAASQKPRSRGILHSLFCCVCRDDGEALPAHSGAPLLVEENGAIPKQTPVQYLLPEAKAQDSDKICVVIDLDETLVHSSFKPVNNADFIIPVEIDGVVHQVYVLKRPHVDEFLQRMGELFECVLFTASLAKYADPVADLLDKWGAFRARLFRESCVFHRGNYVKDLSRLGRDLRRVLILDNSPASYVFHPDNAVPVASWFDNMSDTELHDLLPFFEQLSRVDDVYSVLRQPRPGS

| Structure (SMILES) | IC50 |
| --- | --- |
| CC(C)(O)CCCC(C)(O)c1ccc(C(=O)O)cc1O (centres undefined) | 9.75 µM (active) |
| CCCc1ccc(C(=O)NNC(=O)c2ccc(Cl)cc2)cc1 | 9.67 µM (active) |
| CC(=O)Nc1ccc(S(=O)(=O)N(C)CC(=O)OCC(=O)N2CCN(C(=O)c3ccco3)CC2)cc1 | 9.38 µM (active) |
| O=C(COc1ccc2oc(-c3ccccc3)cc(=O)c2c1)NCc1ccco1 | 9.63 µM (active) |
| COc1ccccc1NC(=O)c1nn(-c2ccc(Cl)cc2)ccc1=O | 9.88 µM (active) |
| C[N+]1(C2CCC3CCCC2C3O)CCCC1 (centres undefined) | 6.98 µM (active) |
| CCn1c(=O)c(NC(=O)c2ccccc2)c2n(c1=S)CCCCC2 | 8.47 µM (active) |

test system: not listed separately; test: Trypanosoma cruzi growth suppression in host cells – NIH3T3 host cells, beta-gal luminescence, confirmation (AID 2044); type: functional, cell-based; details: not given;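 also: intracellular parasites grown in NIH/3T3 mouse fibroblasts as host cells; luminescent beta-galactosidase reporter signal from transgenic T. cruzi replicating inside host cells; inhibitors lower the luminescence signal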

| Structure (SMILES) | EC50 |
| --- | --- |
| CN(C)c1ccc(N/C=C/C(=O)c2ccc(F)cc2)cc1 | 2.32 µM (active) |

target: T4, Corticotropin-releasing factor receptor 2/Corticotropin-releasing factor-binding protein (Homo sapiens, UniProt P24387+Q13324); test: activators of CRF receptor 2 with binding protein – uHTS hits, confirmation (AID 602473); type: functional; details: read-out: EC50_Mean
T4 sequence (Q13324 whole entry): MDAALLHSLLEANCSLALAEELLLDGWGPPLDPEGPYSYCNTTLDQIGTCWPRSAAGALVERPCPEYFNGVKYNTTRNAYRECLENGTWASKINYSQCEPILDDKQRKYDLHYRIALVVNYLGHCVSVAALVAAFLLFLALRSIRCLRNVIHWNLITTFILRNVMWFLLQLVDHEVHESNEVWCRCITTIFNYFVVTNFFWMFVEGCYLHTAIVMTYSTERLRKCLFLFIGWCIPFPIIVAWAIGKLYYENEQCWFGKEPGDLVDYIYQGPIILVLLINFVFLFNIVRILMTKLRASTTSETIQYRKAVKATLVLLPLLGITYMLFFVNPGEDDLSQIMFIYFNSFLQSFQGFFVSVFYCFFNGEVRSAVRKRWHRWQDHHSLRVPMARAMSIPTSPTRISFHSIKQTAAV
T4 sequence (P24387 whole entry): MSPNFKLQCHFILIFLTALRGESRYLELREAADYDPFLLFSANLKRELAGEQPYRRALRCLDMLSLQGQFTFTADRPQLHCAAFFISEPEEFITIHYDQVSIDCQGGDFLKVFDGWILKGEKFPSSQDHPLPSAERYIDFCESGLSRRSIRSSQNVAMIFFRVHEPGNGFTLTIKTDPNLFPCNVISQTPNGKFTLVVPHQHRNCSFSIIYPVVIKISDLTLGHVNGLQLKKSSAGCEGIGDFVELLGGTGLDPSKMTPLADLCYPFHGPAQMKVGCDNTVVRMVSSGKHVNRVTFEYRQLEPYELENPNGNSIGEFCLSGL

| Structure (SMILES) | EC50 |
| --- | --- |
| CCN(C(=O)CN1C(=O)COc2ccc(S(=O)(=O)N3CCCCCC3)cc21)c1cccc(C)c1 | 6.41 µM (active) |
| O=C(NCCOC(=O)C1COc2ccccc2O1)c1cccnc1 (centres undefined) | > 53 µM (inactive) |

test system: not listed separately; test: NIH3T3 cell viability loss – ATP luminescence, mouse fibroblasts, counter-screen, dose response (AID 2010); type: functional, cell-based; details: not given;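 also: cells exposed to compound for about 90 hours before reading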

| Structure (SMILES) | EC50 |
| --- | --- |
| CN(C)c1ccc(N/C=C/C(=O)c2ccc(F)cc2)cc1 | > 30 µM (not active) |

test system: Vero; test: cells; type: functional; details: Chlorocebus sabaeus

| Structure (SMILES) | CC50 |
| --- | --- |
| COc1cccc(-c2ccc(NC(=O)C3CCCN(Cc4cnn(C(C)C)c4)C3)cc2)c1 (centres undefined) | > 25 µM (active) |
| Cc1ccc(-c2cc3nc(-c4ccccc4)cc(NCCCO)n3n2)cc1 | > 25 µM (active) |

target: Large T antigen (Simian virus 40, UniProt P03070); test: not given; type: functional, Betapolyomavirus macacae; details: not given;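 also: Confirmatory-stage PubChem screen for compounds that inhibit SV40 T antigen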
Sequence (P03070 whole entry): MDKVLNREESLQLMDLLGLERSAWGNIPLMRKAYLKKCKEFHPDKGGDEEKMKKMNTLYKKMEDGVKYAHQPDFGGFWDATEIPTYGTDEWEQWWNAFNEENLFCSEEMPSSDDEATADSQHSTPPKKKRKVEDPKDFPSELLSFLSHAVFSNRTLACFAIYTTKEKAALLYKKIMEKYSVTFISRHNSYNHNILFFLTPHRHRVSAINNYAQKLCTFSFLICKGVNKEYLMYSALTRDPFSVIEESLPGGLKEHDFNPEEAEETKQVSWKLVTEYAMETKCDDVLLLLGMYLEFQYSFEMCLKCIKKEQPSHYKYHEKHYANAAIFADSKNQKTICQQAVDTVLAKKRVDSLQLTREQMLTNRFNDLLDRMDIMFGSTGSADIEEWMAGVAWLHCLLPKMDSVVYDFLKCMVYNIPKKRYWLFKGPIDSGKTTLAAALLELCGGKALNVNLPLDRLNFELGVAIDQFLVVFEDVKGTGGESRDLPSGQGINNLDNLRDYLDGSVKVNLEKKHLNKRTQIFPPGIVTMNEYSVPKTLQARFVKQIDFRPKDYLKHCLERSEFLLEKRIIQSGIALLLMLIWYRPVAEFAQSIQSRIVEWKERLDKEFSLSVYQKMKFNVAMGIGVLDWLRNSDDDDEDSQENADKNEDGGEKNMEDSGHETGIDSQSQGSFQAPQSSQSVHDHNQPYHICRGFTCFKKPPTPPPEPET

| Structure (SMILES) | IC50 |
| --- | --- |
| CN(C)c1ccc(N/C=C/C(=O)c2ccccc2)cc1 | 5.19 µM (active) |
| COc1cc(-c2csc(C)n2)ccc1O | 4.9 µM (active) |
| COc1cc(/C=C2\SC(NS(=O)(=O)c3ccc(C)cc3)=NC2=O)c([N+](=O)[O-])cc1OC | 41.3 µM (active) |
| CN(C)c1ccc(NS(=O)(=O)c2cc3c4c(c2)CC(=O)N4CCC3)cc1 | 69.8 µM (active) |
| COc1ccc(NCC(O)Cn2cnc3c2c(=O)n(C)c(=O)n3C)cc1 (centres undefined) | 17.7 µM (active) |
| CC(=O)Oc1cc(O)c2c(=O)c(OC(C)=O)c(-c3ccc(OC(C)=O)c(OC(C)=O)c3)oc2c1 | 14.4 µM (active) |

target: Heat shock protein HSP 90-alpha (Homo sapiens, UniProt P07900); test: not given; type: functional, organism-based; details: not given

| Structure (SMILES) | AC50 |
| --- | --- |
| Oc1ccccc1-c1nc(NC2CCCC2)c2ccccc2n1 | 4.23 µM (active) |
| CC1CCN(C2CC(=O)N(c3ccc(Br)cc3Br)C2=O)CC1 (centres undefined) | < 0.195 µM (active) |
| O=C(CCN1C(=O)/C(=C/c2cccs2)SC1=S)NC1=NCCS1 | 5.03 µM (active) |
| CN(O)C(=S)c1ccccc1 | 0.521 µM (active) |
